# Data reported in patent US8709454B2, “Combination of a microorganism and a phytosphingosine derivative, composition, methods of use” (L'Oreal, priority 2009, dated 2014).
# Assays:
# Type in all cases: cell-based
# Conditions in all cases: topical 50 μl, 6 hours after treatment, related to G3PDH messenger
# [1] = system: cytokeratin 6B (K6B) gene; experiment: RT-qPCR gene expression in Episkin reconstructed epidermis: cytokeratin 6B
# Procedure: (§1) The effects of the following four compositions were tested on the differentiation of Episkin® reconstructed epidermis. • A: formulation support (ethyl alcohol (3%) and water (97%)), • B: lysate (ethyl alcohol (3%), water (87%), lysate (10%)), • C: phytosphingosine salicylate (ethyl alcohol (3%), water (96.998%), phytosphingosine salicylate (0.002%)), and • D: combination in accordance with the invention=(0.002% phytosphingosine salicylate+10% lysate+ethyl alcohol (3%)+water (86.998%)).
# (§2) J6 Episkin® reconstructed epidermis were placed in 12-well plates containing 2 ml of a maintenance medium and cultured at 37° C. and 5% CO2 for 24 hours. […]
# (§3) These effects were characterized by analysing the expression of the cytokeratin 6B (K6B), cytokeratin 10 (K10) and involucrin (INV) genes using a real-time PCR method (quantitative PCR, qPCR) 6 hours after treatment.
# (§4) The expression of the markers selected was evaluated by RT-qPCR on the messenger RNA extracted from the Episkin® reconstructed epidermis of each treatment (the duplicates were pooled before RNA extraction) 6, 24 and 48 hours after treatment. […]
# (§5) The incorporation of fluorescence into the amplified DNA is measured continuously during the PCR cycles. This system makes it possible to obtain curves of the fluorescence measurement as a function of the PCR cycles and thus to evaluate a relative expression value for each marker. […]
# [2] = system: cytokeratin 10 (K10) gene; experiment: RT-qPCR gene expression in Episkin reconstructed epidermis: cytokeratin 10
# Procedure: as §1, §2, §3, §4, §5
# [3] = system: involucrin (INV) gene; experiment: RT-qPCR gene expression in Episkin reconstructed epidermis: involucrin
# Procedure: as §1, §2, §3, §4, §5
substance,measurement,setting,value
phytosphingosine salicylate [Composition C],K6B expression,[1],158 % of the untreated control
same,K10 expression,[2],122 % of the untreated control
same,INV expression,[3],146 % of the untreated control
